Data published in patent publication US20220073536A1 (Rigel Pharmaceuticals, Inc., priority 2003, published 2022).
Counter-ions that a name gives are not always drawn. Like-named read-outs stand apart in the source and are kept apart here.

System: cultured human mast cells (CHMC)
Assay: CHMC low cell density IgE activation: tryptase assay
Type: cell-based
Conditions: low cell density CHMC, IgE activation, tryptase
How it was run: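 CHMC were seeded at 1000–1500 cells/well in MT buffer and incubated 1 hr at 37 °C. They were then stimulated with anti-IgE for 30 min at 37 °C, with unstimulated wells as controls. Released tryptase in the supernatant was measured with a fluorogenic substrate after 30 min at room temperature.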

[1] = 3 pt, read-out: LD Tryptase, CHMC, IgE, 3 pt
[2] = 8 pt, read-out: LD Tryptase, CHMC, IgE, 8 pt
[3] = Homo sapiens, Mast cell, 8 pt, read-out: LD Tryptase, CHMC, IgE, 8 pt
[4] = Homo sapiens, Mast cell, 3 pt, read-out: LD Tryptase, CHMC, IgE, 3 pt

Structure (SMILES) | IC50 [1] [µM] | IC50 [3] [µM] | other results
CNC(=O)Cn1ccc2cc(Nc3ncc(F)c(Nc4ccc5c(n4)NC(=O)C(C)(C)O5)n3)ccc21 [Compound 683, N4-(2,2-Dimethyl-3-oxo-4H-5-pyrid[1,4]oxazin-6-yl)-5-fluoro-N2-[1-(N-methylamino)carbonylmethyleneindol-5-yl]-2,4-pyrimidinediamine] | < 10 |  | IC50 [2]: < 10 µM
Cc1cc(Nc2ncc(F)c(Nc3ccc4c(n3)NC(=O)C(C)(C)O4)n2)cc(C)c1Cl [Compound 684, N2-(4-Chloro-3,5-dimethylphenyl)-N4-(2,2-dimethyl-3-oxo-4H-5-pyrid[1,4]oxazin-6-yl)-5-fluoro-2,4-pyrimidinediamine p-Toluenesulfonic Acid Salt] | < 10 |  | 
CC1(C)Oc2ccc(Nc3nc(Nc4cc(Cl)c(O)c(Cl)c4)ncc3F)nc2NC1=O [Compound 686, N4-(2,2-Dimethyl-3-oxo-4H-5-pyrid[1,4]oxazin-6-yl)-N2-(3,5-dichloro-4-hydroxyphenyl)-5-fluoro-2,4-pyrimidinediamine] | < 10 |  | IC50 [2]: < 10 µM
CN1C(=O)C(C)(C)Oc2ccc(Nc3ncc(F)c(Nc4ccc5c(n4)N(C)C(=O)C(C)(C)O5)n3)nc21 [Compound 687, N2,N4-Bis (3-oxo-2,2,4-trimethyl-5-pyrid[1,4]oxazin-6-yl)-5-fluoro-2,4-pyrimidinediamine] | < 10 |  | 
COC(=O)CN1C(=O)C(C)(C)Oc2ccc(Nc3ccnc(Nc4ccc5c(n4)N(CC(=O)OC)C(=O)C(C)(C)O5)n3)nc21 [Compound 688, N2,N4-Bis (2,2-dimethyl-4-carbomethoxymethyl-3-oxo-5-pyrid[1,4]oxazin-6-yl)-2,4-pyrimidinediamine] | > 10 |  | 
COc1cc(Nc2ncc(F)c(Nc3ccc4c(n3)N(C)C(=O)C(C)(C)O4)n2)cc(OC)c1OC [Compound 689, 5-Fluoro-N4-(3-oxo-2,2,4-trimethyl-5-pyrid[1,4]oxazin-6-yl)-N2-(3,4,5-trimethoxyphenyl)-2,4-pyrimidinediamine] |  |  | IC50 [2]: < 10 µM
COC(=O)CN1C(=O)C(C)(C)Oc2ccc(Nc3nc(Nc4cc(OC)c(OC)c(OC)c4)ncc3F)nc21 [Compound 690, N4-(2,2-Dimethyl-4-carbomethoxymethyl-3-oxo-5-pyrid[1,4]oxazin-6-yl)-5-fluoro-N2-(3,4,5-trimethoxyphenyl)-2,4-pyrimidinediamine] |  |  | IC50 [2]: < 10 µM
COC(=O)CN1C(=O)C(C)(C)Oc2ccc(N(CC(=O)OC)c3nc(Nc4cc(OC)c(OC)c(OC)c4)ncc3F)nc21 [Compound 691, N4-(2,2-Dimethyl-4-carbomethoxymethyl-3-oxo-5-pyrid[1,4]oxazin-6-yl)-5-fluoro-N4-carbomethoxymethyl-N2-(3,4,5-trimethoxyphenyl)-2,4-pyrimidinediamine] | < 10 |  | 
COc1cc(Nc2ncc(F)c(Nc3ccc4c(n3)NC(=O)C(C)(C)O4)n2)cc(OC)c1OCCN1CCOCC1 [Compound 692, N2-[3,5-Dimethoxy-4-(2-(N-morpholino)ethyloxo)phenyl]-N4-(2,2-dimethyl-3-oxo-4H-5-pyrid[1,4]oxazin-6-yl)-5-fluoro-2,4-pyrimidinediamine] | < 10 |  | IC50 [2]: < 10 µM
CC1(C)Oc2ccc(Nc3ncc(F)c(Nc4ccc5c(n4)NC(=O)C(C)(C)O5)n3)nc2NC1=O [Compound 693, N2, N4-Bis (2,2-dimethyl-3-oxo-4H-5-pyrid[1,4]oxazin-6-yl)-5-fluoro-2,4-pyrimidinediamine] | < 10 |  | 
CCCn1ncc2cc(Nc3ncc(F)c(Nc4ccc(OC)c(Cl)c4)n3)ccc21 [Compound 702, N4-(3-Chloro-4-methoxyphenyl)-5-fluoro-N2-(1-n-propylindazol-5-yl)-2,4-pyrimidinediamine] |  | < 10 | 
CCCn1ncc2cc(Nc3ncc(F)c(Nc4ccc(Cl)c(Cl)c4)n3)ccc21 [Compound 703, N4-(3,4-Dichlorophenyl)-5-fluoro-N2-(1-n-propylindazol-5-yl)-2,4-pyrimidinediamine] |  |  | IC50 [4]: < 10 µM
CCCn1ncc2cc(Nc3ncc(F)c(Nc4ccc5c(c4)NC(=O)C(C)(C)O5)n3)ccc21 [Compound 704, N4-(2,2-Dimethyl-3-oxo-4H-benz[1,4]oxazin-6-yl)-5-fluoro-N2-(1-n-propylindazol-5-yl)-2,4-pyrimidinediamine] |  | < 10 | 
CCCn1ncc2cc(Nc3ncc(F)c(Nc4ccc(F)c(OC)c4)n3)ccc21 [Compound 705, 5-Fluoro-N4-(4-fluoro-3-methoxyphenyl)-N2-(1-n-propylindazol-5-yl)-2,4-pyrimidinediamine] |  | < 10 | 
CCCn1ncc2ccc(Nc3ncc(F)c(Nc4ccc(Cl)c(Cl)c4)n3)cc21 [Compound 707, N4-(3,4-Dichlorophenyl)-5-fluoro-N2-(1-n-propylindazol-6-yl)-2,4-pyrimidinediamine] |  | < 10 | IC50 [4]: < 10 µM
CCCn1ncc2ccc(Nc3ncc(F)c(Nc4ccc5c(c4)NC(=O)C(C)(C)O5)n3)cc21 [Compound 708, N4-(2,2-Dimethyl-3-oxo-4H-benz[1,4]oxazin-6-yl)-5-fluoro-N2-(1-n-propylindazol-6-yl)-2,4-pyrimidinediamine] |  | < 10 | 
CCCn1ncc2ccc(Nc3ncc(F)c(Nc4ccc(F)c(OC)c4)n3)cc21 [Compound 709, 5-Fluoro-N4-(4-fluoro-3-methoxyphenyl)-N2-(1-n-propylindazol-6-yl)-2,4-pyrimidinediamine] |  | < 10 | 
CCCCn1ncc2cc(Nc3ncc(F)c(Nc4ccc(OC)c(Cl)c4)n3)ccc21 [Compound 710, N2-(1-n-Butylindazol-5-yl)-N4-(3-chloro-4-methoxyphenyl)-5-fluoro-2,4-pyrimidinediamine] |  |  | IC50 [4]: < 10 µM
CCCCn1ncc2cc(Nc3ncc(F)c(Nc4ccc(Cl)c(Cl)c4)n3)ccc21 [Compound 711, N2-(1-n-Butylindazol-5-yl)-N4-(3,4-dichlorophenyl)-5-fluoro-2,4-pyrimidinediamine] |  |  | IC50 [4]: < 10 µM
CCCCn1ncc2cc(Nc3ncc(F)c(Nc4ccc5c(c4)NC(=O)C(C)(C)O5)n3)ccc21 [Compound 712, N2-(1-n-Butylindazol-5-yl)-N4-(2,2-dimethyl-3-oxo-4H-benz[1,4]oxazin-6-yl)-5-fluoro-2,4-pyrimidinediamine] |  | < 10 | 
CCCCn1ncc2cc(Nc3ncc(F)c(Nc4ccc(F)c(OC)c4)n3)ccc21 [Compound 713, N2-(1-n-Butylindazol-5-yl)-5-fluoro-N4-(4-fluoro-3-methoxyphenyl)-2,4-pyrimidinediamine] |  | < 10 | IC50 [4]: < 10 µM
CCCCn1ncc2ccc(Nc3ncc(F)c(Nc4ccc(OC)c(Cl)c4)n3)cc21 [Compound 714, N2-(1-n-Butylindazol-6-yl)-N4-(3-chloro-4-methoxyphenyl)-5-fluoro-2,4-pyrimidinediamine] |  | < 10 | 
CCCCn1ncc2ccc(Nc3ncc(F)c(Nc4ccc(Cl)c(Cl)c4)n3)cc21 [Compound 715, N2-(1-n-Butylindazol-6-yl)-N4-(3,4-dichlorophenyl)-5-fluoro-2,4-pyrimidinediamine] |  |  | IC50 [4]: < 10 µM
CCCCn1ncc2ccc(Nc3ncc(F)c(Nc4ccc5c(c4)NC(=O)C(C)(C)O5)n3)cc21 [Compound 716, N2-(1-n-Butylindazol-6-yl)-N4-(2,2-dimethyl-3-oxo-4H-benz[1,4]oxazin-6-yl)-5-fluoro-2,4-pyrimidinediamine] |  | < 10 | 
CCCCn1ncc2ccc(Nc3ncc(F)c(Nc4ccc(F)c(OC)c4)n3)cc21 [Compound 717, N2-(1-n-Butylindazol-6-yl)-5-fluoro-N4-(4-fluoro-3-methoxyphenyl)-2,4-pyrimidinediamine] |  |  | IC50 [4]: < 10 µM
